Data as given in US6689762B1, “Composition and methods for treatment of HIV infection” (Enzon Pharmaceuticals, Inc., priority 1998, dated 2004).
Where “and” joins values, the source holds several entries; their conditions need not be identical. Equal entries are not always repeated.

B1: PEG-ASNase: asparaginase conjugated with polyethylene glycol (PEG); sold under the name ONCASPAR by Rhône-Poulenc Rorer (conjugate, UniProt P00805 23-348, looked up)
L-asparaginase 2: LPNITILATGGTIAGGGDSATKSNYTVGKVGVENLVNAVPQLKDIANVKGEQVVNIGSQDMNDNVWLTLAKKINTDCDKTDGFVITHGTDTMEETAYFLDLTVKCDKPVVMVGAMRPSTSMSADGPFNLYNAVVTAADKASANRGVLVVMNDTVLDGRDVTKTNTTDVATFKSVNYGPLGYIHNGKIDYQRTPARKHTSDTPFDVSKLNELPKVGIVYNYANASDLPAKALVDAGYDGIVSAGVGNGNLYKSVFDTLATAAKTGTAVVRSSRVPTGATTQDAEVDDAKYGFVASGTLNPQKARVLLQLALTQTKDPQQIQQIFNQY
modifications: PEG conjugate (pegaspargase)
notes: asparaginase conjugated with polyethylene glycol (PEG); sold under the name ONCASPAR by Rhône-Poulenc Rorer

Tests used:
[1] = test system: HIV-RNA in HIV-1 infected CEM/0 T-cell pellets; assay: HIV-1 quantitative RNA assay (HIV-1 Monitor) in CEM/0 T-cell pellets; format: cell-based; conditions: for mean, X3: Table 7; for N*: Table 7, per specimen, day 7, PEG 0.400 IU/ml, SAQ 25 uM, AZT 1 uM, MISID 0.685 uM, combinations PEG 0.233 IU/ml + SAQ 14.52 uM; for % control: Table 7 and text of Experiment 9; for Log 10 N: Table 2, per flask
Description: This experiment is carried out using a similar procedure, and the same concentrations of materials as in Experiment 1, however the exposure of HIV-RNA in T-cell pellets to a combination of PEG-ASNase and Saquinavir is measured. […] It should be noted that “PEG” in Table 2 represents PEG-ASNase.
The cell line used for these studies is CEM/0, a human T-cell leukemic cell line. PEG-ASNase (ONCASPAR) is provided by Rhone-Poulenc Rorer. Saquinavin is commercially available. AZT is purchased from Sigma. MISID, a ribonucleotide reductase inhibitor, is synthesized as indicated in Nandy P, Lien E J, Avramis V I, Med. Chem. Res. 1995, 5:664-679. RPMI-1640 media (Irvine Scientific, Irvine, Calif.), is enriched with 10% Fetal Calf Serum (Gemini Biosource, Calabasas, Calif.), 5% 1M Hepes Buffer solution and 5% Non-essential amino acids (Irvine Scientific, Irvine, Calif.). The drug concentrations used are as follows:
Briefly, 3×10^6 cells/ml are stimulated with PHA+ media for 48 hours at 37° C. with 5% CO2. Also, the same number of cells are incubated in PHA free media for 48 hours to serve as the negative control. At this point the cells are inoculated with the HIV-1 virus as per standard protocol. Note that in this experiment, the HIV containing supernatant from the PHA-stimulated healthy human peripheral mononuclear cells (PBMC) is not removed from the PHA-stimulated CEM/0 cell culture. […] These virus particles are released by already infected T-cells and/or lymph nodes of patients.
The experimental drugs are added to the cells in the appropriate concentrations at the same time as viral inoculation or 90 minutes after the viral incubation, a time sufficient for the T-cells to be infected and start producing new HIV-1 virus particles. The control cells are resuspended in drug-free media for the duration of the exposure which lasted seven days. Aliquots of media from the control flasks only are obtained on day 5 post Rx. At day seven, three 1 ml each, aliquots of media are removed from the flasks and stored under liquid nitrogen. In addition, the remaining cells are split into three and then pelleted and stored at −80° C.
The samples produced from this experiment are itemized. The cell pellets of the cellular cultures (see Experiment 7) from the 90 minute viral incubation flasks are assayed for HIV-RNA quantitative assay using a kit for the assay, non-radioactive. The standard curve is determined and the HIV-RNA levels for the experimental samples are calculated and reported previously.

[2] = test system: HIV-RT levels of HIV-1 infected CEM/0 cell pellets; assay: HIV-RT ELISA (Reverse Transcriptase Assay, non-radioactive) in cell pellets of HIV-1 infected CEM/0 T-cells; format: cell-based; design: % of control (of RANGE) / % of control (of MEAN): concentration or dose not given beside the values; conditions: for MEAN (HIV-RT): Table 5, three wells; for % of control (of RANGE): * single point determination; for MEAN X3 (HIV-RT): Table 9
Text: The following is a general procedure for the HIV-reverse transcriptase assay:
The cell line used for these studies is CCRF/CEM/O, a human T-leukemic cell line. PEG-ASNase (ONCASPAR) is provided by Rhone-Poulenc Rorer. Saquinavir is commercially available. RPMI-1640 media (Irvine Scientific, Irvine, Calif.) is enriched with 10% Fetal Calf Serum (Gemini Biosource, Calabasas, Calif.), 5% 1M Hepes Buffer solution and 5% Non-essential amino acids (Irvine Scientific, Irvine, Calif.). The drug concentrations used are as follows:
Briefly, 2×10^6 cells/ml are stimulated with PHA+ media for 48 hours at 37° C. with 5% CO2. Also, the same number of cells are incubated in PHA(phytohemagglutinin) free media for 48 hours to serve as the negative control. At this point the cells are inoculated with the HIV-1 virus as per standard protocol. PEG-ASNase and/or Saquinavir are added to the cells in the appropriate concentrations (see above). The control cells are resuspended in drug-free media for the duration of the exposure which lasted seven days. At day five, two 1 ml aliquots of media are removed from the flasks and stored under liquid nitrogen. At day seven, two more 1 ml aliquots of media are removed from the flasks and stored under liquid nitrogen. In addition, the remaining cells are pelleted and stored at −80° C.
The samples produced from this experiment are itemized and then assayed for HIV-RT using the Reverse Transcriptase Assay, non-radioactive (Boehringer Mannheim). The standard curve is determined and the HIV-RT levels for the experimental samples are calculated.
This experiment is carried out using a similar procedure, and the same concentrations of materials as in Experiment 7, however the exposure of the HIV virus in T-cell pellets to PEG-ASNase and Saquinavir alone, and in combination is measured. It should be noted that “PEG” in Table 2a represents PEG-ASNase. […]

[3] = Experiment 7, monotherapy at IC50 concentrations or combination
[4] = Experiment 10 (3TC) text, cell pellets
[5] = Table 9, per well, listed as SAQ
[6] = Table 2a, per flask, listed as PEG
[7] = Table 9, per well, listed as PEG

Molecule | mean, X3 [1] [copies/cell pellet] | % control [1] [%] | % of control (of MEAN) ([2]; Table 5) [%] | MEAN (HIV-RT) [2] [pg/well] | % of control (of RANGE) ([2]; Table 5) [%] | MEAN X3 (HIV-RT) [2] [ng/well] | inhibition of HIV-RT [2, 3] [%] | inhibition of HIV-RT [2, 4] | group mean (X2/X3) +/- S.D. ([2]; Table 2a) | also measured
Cc1cn([C@H]2C[C@H](N=[N+]=[N-])[C@@H](CO)O2)c(=O)[nH]c1=O [AZT, zidovudine] | 102473 | 48 | 0 | 0 | 0 | 0 |  |  |  | N* [1]: 107269 copies/cell pellet and 97933 copies/cell pellet and 102217 copies/cell pellet; inhibition of HIV-RT ([2]; Experiment 7, cell pellets): most dramatic inhibition; HIV-RT ([2]; Table 5, per well, negative values set to 0): 0 pg/well; HIV-RT (negative values set to 0) ([2]; Table 9, per well): 0 ng/well
CC(C)(C)NC(=O)[C@@H]1C[C@@H]2CCCC[C@@H]2CN1C[C@@H](O)[C@H](Cc1ccccc1)NC(=O)[C@H](CC(N)=O)NC(=O)c1ccc2ccccc2n1 [Saquinavir] | 125628 | 59 | 12.7 | 0.016 | 12.7 | 0.022 | 83 | some inhibition | X2 = 31.10 +/− 4.67 pg/well, % CV = 15.01% | inhibition of HIV-1 RNA production in comparison with the control ([1]; Experiment 5 text): approximately 36%; Log 10 N ([1]; listed as SAQ): 5.06 and 5.09; N* ([1]; listed as SAQ): 138583 copies/cell pellet and 109522 copies/cell pellet and 128780 copies/cell pellet; inhibition of HIV-RT in comparison with the control ([2]; Experiment 5a text, combination at synergistically reduced concentrations): approximately 15%; HIV-RT [2, 5]: 0.021 ng/well and 0.023 ng/well; HIV-RT (negative values set to 0) [2, 5]: 0.021 ng/well and 0.023 ng/well
B1 | 173448 | 81 | 46.03 | 0.058 | 67.46 | 0.159 | 54 | some inhibition | X3 = 68.43 +/− 11.26 pg/well, % CV = 16.45% | Log 10 N ([1]; listed as PEG): 5.26 and 5.42; N* ([1]; listed as PEG): 183977 copies/cell pellet and 156304 copies/cell pellet and 180062 copies/cell pellet; effect on HIV-RNA in cell pellets ([1]; text of Experiments 5, 6 and 9): no apparent effect; inhibition of intracellular HIV-RT as compared to untreated control ([2]; Example 1, day 7 pellets, PEG-ASNase 0.4 IU/ml, Saquinavir 25 μM, combination 0.233 IU/ml + 14.5 μM): about 30%; effect in inhibiting HIV-RT ([2]; Experiment 5a, day 7): moderate effect; % cont. [2, 6]: 79.9% and 68.0% and 57.4%; HIV-RT [2, 6]: 0.330 pg/well and 0.281 pg/well and 0.237 pg/well; RANGE (HIV-RT, low or zero wells left out) ([2]; Table 5): 0.085 pg/well; HIV-RT [2, 7]: 0.201 ng/well and 0.142 ng/well and 0.133 ng/well; HIV-RT (negative values set to 0) [2, 7]: 0.201 ng/well and 0.142 ng/well and 0.133 ng/well
